The record followed here is patent US20200399222A1, “PICOLINAMIDES AS FUNGICIDES” (Dow AgroSciences LLC, priority 2018, published 2020).

What all share (type): in vivo
For assay [1], the system named is Puccinia triticina. Description: Wheat brown rust (PUCCRT) disease control on wheat seedlings. To be noted: for pest or weed control at 121.5 g/ha: Low volume application; for pest or weed control at 100 ppm: High volume application. Put shortly:
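Yuma wheat seedlings (first leaf emerged) sprayed to run-off with compound in acetone plus nine volumes water containing 110 ppm Triton X-100, or track-sprayed as EC formulations with 0.1% Trycol 5941. Rust spores inoculated before or after treatment; overnight dark dew, 22 °C, 100% RH, then greenhouse at 24 °C.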

In assay [2] the test system is Phakopsora pachyrhizi. Description: Asian soybean rust (PHAKPA) disease control on soybean seedlings. To be noted: Phakopsora pachyrhizi, High volume application at 25 ppm. Summed up: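 Compounds in acetone diluted with nine volumes of water containing 0.011% Tween 20, sprayed to run-off on two-week-old Williams 82 soybean seedlings; inoculation 3 days before or 1 day after treatment. Plants held 24 h in dark dew room at 22° C, 100% RH, then at 23° C; disease severity scored on sprayed leaves.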

Assay [3] deals with Zymoseptoria tritici. Kind of assay: Leaf blotch of wheat (SEPTTR) disease control on wheat seedlings. As to conditions: for pest or weed control at 121.5 g/ha: Low volume application; for pest or weed control at 100 ppm: High volume application.
Setting [4] is: 24 h, 1 Day Protectant, read-out: PUCCRT disease control rating, 1DP.
[5] abbreviates: 72 h, 3 Day Curative, read-out: PUCCRT disease control rating, 3DC.
Setting [6] is: 24 h, 1 day protectant, read-out: PHAKPA 1DP (1 Day Protectant) disease control.
Where [7] appears, read: 72 h, 3 day curative, read-out: PHAKPA 3DC (3 Day Curative) disease control.
Where [8] appears, read: 24 h, 1 Day Protectant, read-out: SEPTTR disease control rating, 1DP.
Setting [9] is: 72 h, 3 Day Curative, read-out: SEPTTR disease control rating, 3DC.

Where two headings read alike, the source gives them in different places. Some results are limits rather than exact numbers.

As to `COc1ccnc(C(=O)N[C@@H](C)C(=O)O[C@H](C)[C@H](C)C2CCCC2)c1OC(C)=O` [Example 252], the pest or weed control at 121.5 g/ha in assay [1] (setting [4]) was < 0%; in assay [1] (setting [5]), < 80%; in assay [3] (setting [8]), < 0%; in assay [3] (setting [9]) it was < 80%. Further, the pest or weed control at 25 ppm in assay [2] (setting [6]) and in assay [2] (setting [7]) was < 80% in each case.
As for `COc1ccnc(C(=O)N[C@@H](C)C(=O)O[C@H](C)[C@H](C)c2c(C)cccc2C)c1OC(C)=O` [Example 253], the pest or weed control at 121.5 g/ha in assay [1] (setting [4]) is > 80%; in assay [1] (setting [5]) it was < 80%; in assay [3] (setting [8]), < 80%; in assay [3] (setting [9]), < 80%. The pest or weed control at 25 ppm in assay [2] (setting [6]) and in assay [2] (setting [7]) was > 80% throughout.
Regarding `COc1ccnc(C(=O)N[C@@H](C)C(=O)O[C@H](C)[C@H](C)c2c(C)cc(F)cc2C)c1OC(C)=O` [Example 254], the pest or weed control at 121.5 g/ha in assay [1] (setting [4]), in assay [1] (setting [5]), in assay [3] (setting [8]) and in assay [3] (setting [9]) was > 80% in each case. For the same compound, the pest or weed control at 25 ppm in assay [2] (setting [6]) and in assay [2] (setting [7]) was > 80% each time.
Regarding `COc1ccnc(C(=O)N[C@@H](C)C(=O)OC(C)C(C)c2c(C)cccc2C)c1OC(C)=O` (stereo partly drawn) [Example 255], the pest or weed control at 121.5 g/ha in assay [1] (setting [4]) was > 80%; in assay [1] (setting [5]) it was < 80%; in assay [3] (setting [8]), < 80%; in assay [3] (setting [9]), > 80%. Moreover, the pest or weed control at 25 ppm in assay [2] (setting [6]) and in assay [2] (setting [7]) was > 80% throughout.
With `COc1ccnc(C(=O)N[C@@H](C)C(=O)OC(C)C(C)c2c(C)cc(F)cc2C)c1OC(C)=O` (stereo partly drawn) [Example 256], the pest or weed control at 121.5 g/ha in assay [1] (setting [4]), in assay [1] (setting [5]), in assay [3] (setting [8]) and in assay [3] (setting [9]) was > 80% in each case. Moreover, the pest or weed control at 25 ppm in assay [2] (setting [6]) and in assay [2] (setting [7]) was > 80% each time.
As to `COc1ccccc1[C@H](C)[C@H](C)OC(=O)[C@H](C)NC(=O)c1nccc(OC)c1OC(C)=O` [Example 257], the pest or weed control at 121.5 g/ha in assay [1] (setting [4]), in assay [1] (setting [5]), in assay [3] (setting [8]) and in assay [3] (setting [9]) was < 80% each time. Further, the pest or weed control at 25 ppm in assay [2] (setting [6]) was < 80%; in assay [2] (setting [7]), < 0%.
`COc1ccnc(C(=O)N[C@@H](C)C(=O)O[C@@H](C)[C@@H](C)c2ccccc2)c1OC(C)=O` [Example 258]: the pest or weed control at 100 ppm in assay [1] (setting [4]) was > 80%; in assay [1] (setting [5]) it was > 80%; in assay [3] (setting [8]), < 80%; in assay [3] (setting [9]), < 80%. For the same compound, the pest or weed control at 121.5 g/ha in assay [1] (setting [4]) was < 80%; in assay [1] (setting [5]), > 80%; in assay [3] (setting [8]) it was < 80%; in assay [3] (setting [9]) it was > 80%. Also, the pest or weed control at 25 ppm in assay [2] (setting [6]) and in assay [2] (setting [7]) was > 80% in each case.
Take `COc1ccnc(C(=O)N[C@@H](C)C(=O)O[C@@H](C)[C@@H](C)c2ccc(C)s2)c1OC(C)=O` [Example 259]: the pest or weed control at 100 ppm in assay [1] (setting [4]) is > 80%; in assay [1] (setting [5]) it was > 80%; in assay [3] (setting [8]), < 80%; in assay [3] (setting [9]) it was < 0%. Moreover, the pest or weed control at 121.5 g/ha in assay [1] (setting [4]) is < 80%; in assay [1] (setting [5]) it was < 0%; in assay [3] (setting [8]), < 80%; in assay [3] (setting [9]), < 0%. In addition, the pest or weed control at 25 ppm in assay [2] (setting [6]) and in assay [2] (setting [7]) was < 80% throughout.
As for `COc1cc(F)ccc1[C@@H](C)[C@@H](C)OC(=O)[C@H](C)NC(=O)c1nccc(OC)c1OC(C)=O` [Example 260], the pest or weed control at 100 ppm in assay [1] (setting [4]) was > 80%; in assay [1] (setting [5]) it was < 80%; in assay [3] (setting [8]), < 80%; in assay [3] (setting [9]), < 80%. The pest or weed control at 121.5 g/ha in assay [1] (setting [4]) was < 0%; in assay [1] (setting [5]), < 0%; in assay [3] (setting [8]), < 80%; in assay [3] (setting [9]), < 0%. Further, the pest or weed control at 25 ppm was > 80% in assay [2] (setting [6]) and < 80% in assay [2] (setting [7]).
Regarding `COc1ccnc2c(=O)n([C@@H](C)C(=O)O[C@@H](C)[C@@H](C)c3ccccc3)c(=O)oc12` [Example 261], the pest or weed control at 121.5 g/ha in assay [1] (setting [4]) was < 80%; in assay [1] (setting [5]), < 0%; in assay [3] (setting [8]), < 80%; in assay [3] (setting [9]) it was < 0%. For the same compound, the pest or weed control at 25 ppm in assay [2] (setting [6]) and in assay [2] (setting [7]) was < 80% in each case.
For `COc1cc(F)ccc1[C@@H](C)[C@@H](C)OC(=O)[C@H](C)n1c(=O)oc2c(OC)ccnc2c1=O` [Example 262], the pest or weed control at 121.5 g/ha in assay [1] (setting [4]) is < 0%; in assay [1] (setting [5]), < 0%; in assay [3] (setting [8]), < 80%; in assay [3] (setting [9]), < 80%. Moreover, the pest or weed control at 25 ppm in assay [2] (setting [6]) and in assay [2] (setting [7]) was < 80% throughout.
`COc1ccnc(C(=O)N[C@@H](C)C(=O)O[C@H](C)[C@H](C)c2ccccc2C)c1OC(=O)C(C)C` [Example 265]: the pest or weed control at 121.5 g/ha in assay [1] (setting [4]), in assay [1] (setting [5]), in assay [3] (setting [8]) and in assay [3] (setting [9]) was < 80% each time. The pest or weed control at 25 ppm in assay [2] (setting [6]) and in assay [2] (setting [7]) was > 80% in each case.
`COc1ccnc(C(=O)N[C@@H](C)C(=O)O[C@@H](C)[C@@H](C)c2ccccc2C)c1OC(=O)C(C)C` [Example 266]: the pest or weed control at 121.5 g/ha in assay [1] (setting [4]), in assay [1] (setting [5]), in assay [3] (setting [8]) and in assay [3] (setting [9]) was < 80% in each case. The pest or weed control at 25 ppm in assay [2] (setting [6]) and in assay [2] (setting [7]) was > 80% throughout.
In the case of `COc1ccnc(C(=S)N[C@@H](C)C(=O)O[C@@H](C)[C@@H](C)c2ccccc2C(F)(F)F)c1OC(C)=O` [Example 270], the pest or weed control at 121.5 g/ha in assay [1] (setting [4]), in assay [1] (setting [5]), in assay [3] (setting [8]) and in assay [3] (setting [9]) was < 80% each time. Moreover, the values for the pest or weed control at 25 ppm in assay [2] (setting [6]) and in assay [2] (setting [7]) were > 80% and < 80%, respectively.
On to `COc1ccnc(C(=S)N[C@@H](C)C(=O)O[C@@H](C)[C@@H](C)c2ccc(F)cc2C(F)(F)F)c1OC(C)=O` [Example 271], for which the pest or weed control at 121.5 g/ha in assay [1] (setting [4]), in assay [1] (setting [5]), in assay [3] (setting [8]) and in assay [3] (setting [9]) was < 80% in each case. The pest or weed control at 25 ppm in assay [2] (setting [6]) and in assay [2] (setting [7]) was > 80% each time.
For the compound `COc1ccnc(C(=S)N[C@@H](C)C(=O)O[C@@H](C)[C@@H](C)C2CCCC2)c1OC(C)=O` [Example 272], the pest or weed control at 121.5 g/ha in assay [1] (setting [4]), in assay [1] (setting [5]), in assay [3] (setting [8]) and in assay [3] (setting [9]) was < 80% throughout. Besides, the pest or weed control at 25 ppm in assay [2] (setting [6]) was > 80%; in assay [2] (setting [7]), < 80%.
As for `COc1cc[n+]([O-])c(C(=O)N[C@@H](C)C(=O)O[C@@H](C)[C@@H](C)c2ccccc2C(F)(F)F)c1O` [Example 273], the pest or weed control at 121.5 g/ha in assay [1] (setting [4]), in assay [1] (setting [5]), in assay [3] (setting [8]) and in assay [3] (setting [9]) was < 80% in each case. Also, the pest or weed control at 25 ppm in assay [2] (setting [6]) and in assay [2] (setting [7]) was < 80% in each case.
Take `COc1cc[n+]([O-])c(C(=O)N[C@@H](C)C(=O)O[C@@H](C)[C@@H](C)c2ccc(F)cc2C(F)(F)F)c1O` [Example 274]: the pest or weed control at 121.5 g/ha in assay [1] (setting [4]), in assay [1] (setting [5]), in assay [3] (setting [8]) and in assay [3] (setting [9]) was < 80% throughout. The pest or weed control at 25 ppm in assay [2] (setting [6]) and in assay [2] (setting [7]) was < 80% in each case.
For `COc1cc[n+]([O-])c(C(=O)N[C@@H](C)C(=O)O[C@@H](C)[C@@H](C)C2CCCC2)c1O` [Example 275], the pest or weed control at 121.5 g/ha in assay [1] (setting [4]) was < 80%; in assay [1] (setting [5]) it was < 0%; in assay [3] (setting [8]), < 0%; in assay [3] (setting [9]), < 0%. Also, the pest or weed control at 25 ppm in assay [2] (setting [6]) and in assay [2] (setting [7]) was < 80% each time.
